# From BindingDB's records for patent US20250313563 (The Broad Institute, 2025)
# pIC50: −log10 of the molar value. Where “and” joins values, the source holds several entries; their conditions need not be identical. Identical values can stand only once.
# Columns and labels:
# [1] = target: Glycogen synthase kinase-3 beta (Homo sapiens, UniProt P49841); assay: TR-FRET Assay
# Procedure, shortened: (§1)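 Signal is measured as TR-FRET between a terbium anti-phospho-Ser641 antibody and streptavidin-d2, added after an EDTA quench. Compounds are preincubated 30 min in assay buffer.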
# [2] = target: Glycogen synthase kinase-3 alpha (Homo sapiens, UniProt P49840); assay: TR-FRET Assay
# Chain of Glycogen synthase kinase-3 alpha (P49840 whole entry): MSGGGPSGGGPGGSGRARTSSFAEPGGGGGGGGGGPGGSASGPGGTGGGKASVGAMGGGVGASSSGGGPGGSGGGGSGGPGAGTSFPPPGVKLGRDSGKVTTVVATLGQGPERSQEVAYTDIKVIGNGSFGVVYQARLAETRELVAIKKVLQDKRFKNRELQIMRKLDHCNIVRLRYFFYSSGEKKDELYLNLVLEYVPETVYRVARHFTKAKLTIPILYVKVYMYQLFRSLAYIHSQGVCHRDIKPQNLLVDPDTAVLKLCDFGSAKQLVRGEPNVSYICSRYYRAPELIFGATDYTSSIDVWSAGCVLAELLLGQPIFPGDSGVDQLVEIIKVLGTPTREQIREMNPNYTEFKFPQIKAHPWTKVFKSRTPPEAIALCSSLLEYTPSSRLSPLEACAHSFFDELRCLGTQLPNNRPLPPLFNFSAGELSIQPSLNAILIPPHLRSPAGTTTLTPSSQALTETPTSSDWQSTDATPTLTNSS
# Procedure, shortened: as §1
# Chain of Glycogen synthase kinase-3 beta (P49841 whole entry): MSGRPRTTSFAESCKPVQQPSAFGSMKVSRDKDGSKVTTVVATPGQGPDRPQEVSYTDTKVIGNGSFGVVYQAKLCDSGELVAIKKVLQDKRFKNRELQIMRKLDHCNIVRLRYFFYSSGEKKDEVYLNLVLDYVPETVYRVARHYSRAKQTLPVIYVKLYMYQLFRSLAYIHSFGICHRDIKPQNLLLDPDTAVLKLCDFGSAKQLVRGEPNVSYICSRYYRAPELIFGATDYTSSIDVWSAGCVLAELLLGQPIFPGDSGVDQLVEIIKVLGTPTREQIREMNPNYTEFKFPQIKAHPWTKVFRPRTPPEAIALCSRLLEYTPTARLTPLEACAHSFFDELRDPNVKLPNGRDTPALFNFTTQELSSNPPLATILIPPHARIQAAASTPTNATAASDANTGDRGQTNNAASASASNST
smiles,measurement,setting,value
"CCC1(c2cccc(Oc3ncccn3)c2)C2=CN=NC2NC2=C1C(=O)CC(C)(C)C2 (stereo not given) [US20250313563, Compound 947400]",pIC50,[1],> 7.00
same,pIC50,[2],> 7.00
"CCC1(c2cccc(-c3cc(C)ncc3F)c2)C2=CN=NC2NC2=C1C(=O)NC(C)(C)C2 (stereo not given) [US20250313563, Compound 947401]",pIC50,[1],6.00 to 7.00 and < 5.30
same,pIC50,[2],> 7.00 and 6.00 to 7.00
"CCC1(c2cccc(-c3ccnc(C)c3F)c2)C2=C(CC(C)(C)NC2=O)NC2N=NC(C)=C21 (stereo not given) [US20250313563, Compound 947402]",pIC50,[1],6.00 to 7.00
same,pIC50,[2],> 7.00
"CCC1(c2cccc(-c3cnn(C)c3C)c2)C2=C(CC(C)(C)NC2=O)NC2N=NC(C(F)(F)F)=C21 (stereo not given) [US20250313563, Compound 947403]",pIC50,[1],> 7.00 and 6.00 to 7.00
same,pIC50,[2],> 7.00
"CCC1(c2cccc(-c3cnn(C)c3)c2)C2=C(CC(C)(C)NC2=O)NC2N=NC(C(F)(F)F)=C21 (stereo not given) [US20250313563, Compound 947405]",pIC50,[1],> 7.00 and 6.00 to 7.00
same,pIC50,[2],> 7.00
"CC[C@@]1(c2cccc(-c3ccnc(C)c3)c2)C2=CN=NC2NC2=C1C(=O)N[C@@]1(CCOC1)C2 (stereo not given in full) [US20250313563, Compound 947406]",pIC50,[1],6.00 to 7.00 and < 5.30
same,pIC50,[2],> 7.00 and 6.00 to 7.00
"CC[C@@]1(c2cccc(-c3c(C)nn(C)c3C)c2)C2=CN=NC2NC2=C1C(=O)NC(C)(C)C2 (stereo not given in full) [US20250313563, Compound 947408]",pIC50,[1],> 7.00 and 5.30 to 6.00
same,pIC50,[2],> 7.00 and 6.00 to 7.00
"CC[C@]1(c2cccc(-c3ccncc3C)c2)C2=C(CC(C)(C)NC2=O)NC2N=NC(C)=C21 (stereo not given in full) [US20250313563, Compound 947409]",pIC50,[1],< 5.30
same,pIC50,[2],5.30 to 6.00
"CC[C@@]1(c2cccc(-c3cnn4c3CCCC4)c2)C2=CN=NC2NC2=C1C(=O)NC(C)(C)C2 (stereo not given in full) [US20250313563, Compound 947410]",pIC50,[1],6.00 to 7.00 and < 5.30
same,pIC50,[2],> 7.00 and 6.00 to 7.00
"CC[C@@]1(c2cccc(-c3ccnc(C)c3)c2)C2=CN=NC2NC2=C1C(=O)C[C@@]1(CCOC1)C2 (stereo not given in full) [US20250313563, Compound 947411]",pIC50,[1],< 5.30
same,pIC50,[2],< 5.30
"CC[C@]1(c2cccc(-c3c(C)nn(C)c3C)c2)C2=CN=NC2NC2=C1C(=O)NC(C)(C)C2 (stereo not given in full) [US20250313563, Compound 947413]",pIC50,[1],< 5.30
same,pIC50,[2],5.30 to 6.00
"CC[C@@]1(c2cccc(-c3ccncc3C)c2)C2=C(CC(C)(C)NC2=O)NC2N=NC(C)=C21 (stereo not given in full) [US20250313563, Compound 947414]",pIC50,[1],> 7.00 and 5.30 to 6.00
same,pIC50,[2],> 7.00 and 6.00 to 7.00
"CC[C@]1(c2cccc(C(F)(F)F)c2)C2=CN=NC2NC2=C1C(=O)N(c1cccnc1)CC2 (stereo not given in full) [US20250313563, Compound 947432]",pIC50,[1],6.00 to 7.00 and < 5.30
same,pIC50,[2],> 7.00 and 6.00 to 7.00
"CCC1(c2cccc(C(C)c3ncccn3)c2)C2=CN=NC2NC2=C1C(=O)CC(C)(C)C2 (stereo not given) [US20250313563, Compound 947434]",pIC50,[1],6.00 to 7.00
same,pIC50,[2],> 7.00
"Cc1ccc(S(=O)(=O)N2CCC3(CC2)C2=C(N=NC2)NC2=C3C(=O)CC(C)(C)C2)cc1 [US20250313563, Compound 947459]",pIC50,[1],6.00 to 7.00
same,pIC50,[2],> 7.00
"Cc1c(S(=O)(=O)N2CCC3(CC2)C2=C(N=NC2)NC2=C3C(=O)CC(C)(C)C2)cnn1C [US20250313563, Compound 947460]",pIC50,[1],> 7.00
same,pIC50,[2],> 7.00
"CC1(C)CC(=O)C2=C(C1)NC1=C(CN=N1)C21CCN(S(=O)(=O)c2ccn(-c3ccccc3)n2)CC1 [US20250313563, Compound 947461]",pIC50,[1],> 7.00
same,pIC50,[2],> 7.00
"CC1(C)CC(=O)C2=C(C1)NC1=C(CN=N1)C21CCN(S(=O)(=O)C2=CN=C3CC=CC=C3C2)CC1 [US20250313563, Compound 947462]",pIC50,[1],> 7.00 and 5.30 to 6.00
same,pIC50,[2],> 7.00 and 6.00 to 7.00
"CC1(C)CC(=O)C2=C(C1)NC1=C(CN=N1)C21CCN(S(=O)(=O)c2cnccc2C(F)(F)F)CC1 [US20250313563, Compound 947463]",pIC50,[1],6.00 to 7.00
same,pIC50,[2],> 7.00
"CC1(C)CC(=O)C2=C(C1)NC1=C(CN=N1)C21CCN(S(=O)(=O)c2cccc3c2OCCO3)CC1 [US20250313563, Compound 947464]",pIC50,[1],> 7.00 and 6.00 to 7.00
same,pIC50,[2],> 7.00
"COc1cncc(S(=O)(=O)N2CCC3(CC2)C2=C(N=NC2)NC2=C3C(=O)CC(C)(C)C2)c1 [US20250313563, Compound 947465]",pIC50,[1],> 7.00
same,pIC50,[2],> 7.00
"CC1(C)CC(=O)C2=C(C1)NC1=C(CN=N1)C21CCN(S(=O)(=O)c2cnnn2-c2ccccc2)CC1 [US20250313563, Compound 947466]",pIC50,[1],6.00 to 7.00
same,pIC50,[2],> 7.00
"CC1(C)CC(=O)C2=C(C1)NC1N=NC=C1C21CCN(S(=O)(=O)c2cnc3n2CCC3)CC1 (stereo not given) [US20250313563, Compound 947467]",pIC50,[1],6.00 to 7.00
same,pIC50,[2],> 7.00
"Cc1ccc(S(=O)(=O)N2CCC3(CC2)C2=C(N=NC2)NC2=C3C(=O)CC(C)(C)C2)c(C)c1 [US20250313563, Compound 947468]",pIC50,[1],> 7.00
same,pIC50,[2],> 7.00
"CC1(C)CC(=O)C2=C(C1)NC1=C(CN=N1)C21CCN(S(=O)(=O)c2cccc3ncccc23)CC1 [US20250313563, Compound 947469]",pIC50,[1],> 7.00
same,pIC50,[2],> 7.00
